Measured values reported in DBAASP.
Converted amounts (≈) assume the structure as drawn. Each block holds one compound with its values, some of them ahead of it.

Columns and labels:
Test in all cases: ≥ marks a high value that may be exact or a test limit, other limits are often not marked, values filed in µg/mL are converted to µM
[1] = system: Escherichia coli ATCC 25922
[2] = system: Pseudomonas aeruginosa 21328
[3] = system: Pseudomonas aeruginosa 25349
[4] = system: Pseudomonas aeruginosa ATCC 27853
[5] = system: Pseudomonas aeruginosa CICC 10419
[6] = system: Pseudomonas aeruginosa CICC 11411
[7] = system: Pseudomonas aeruginosa CICC 11421
[8] = system: Pseudomonas aeruginosa CICC 11431
[9] = system: Pseudomonas aeruginosa CICC 21625
[10] = system: Pseudomonas aeruginosa CICC 21630
[11] = system: Staphylococcus aureus ATCC 29213
[12] = system: Candida albicans ATCC 5314
[13] = system: Staphylococcus aureus ATCC 25923
Staphylococcus aureus MR = system: Staphylococcus aureus MR
[14] = system: Acinetobacter baumannii ATCC 17978D-5
[15] = system: Enterococcus faecium ATCC 700221
[16] = system: Klebsiella aerogenes ATCC 13048
[17] = system: Pseudomonas aeruginosa ATCC 19660
[18] = system: Staphylococcus aureus ATCC 33591
[19] = system: Staphylococcus epidermidis ATCC 51625
[20] = system: Streptococcus pneumoniae ATCC 49619

- MIC [1]: 12.7 µM (≈ 32 µg/mL)
- MIC [2]: ≥ 102 µM
- MIC [3]: 12.7 µM (≈ 32 µg/mL)
- MIC [4]: 1.59 µM (≈ 4 µg/mL)
- MIC [5]: ≥ 102 µM
- MIC [6]: ≥ 102 µM
- MIC [7]: ≥ 102 µM
- MIC [8]: 3.19 µM (≈ 8 µg/mL)
- MIC [9]: ≥ 102 µM
- MIC [10]: 6.37 µM (≈ 16 µg/mL)
- MIC [11]: 6.37 µM (≈ 16 µg/mL)
SMILES: NC(=O)[C@H](Cc1c[nH]c2ccccc12)NC(=O)[C@H](CCCN=C(N)N)NC(=O)[C@H](CCCN=C(N)N)NC(=O)[C@H](Cc1c[nH]c2ccccc12)NC(=O)[C@H](CCCN=C(N)N)NC(=O)[C@H](CCCN=C(N)N)NC(=O)[C@H](CCCN=C(N)N)NC(=O)[C@H](Cc1c[nH]c2ccccc12)NC(=O)[C@H](CCCN=C(N)N)NC(=O)[C@H](CCCN=C(N)N)NC(=O)[C@H](CCCN=C(N)N)NC(=O)[C@H](Cc1c[nH]c2ccccc12)NC(=O)[C@H](CCCN=C(N)N)NC(=O)[C@H](CCCN=C(N)N)NC(=O)[C@@H](N)Cc1c[nH]c2ccccc12 [WRRWRRRWRRRWRRW]

- MIC [12]: 26.4 µM (≈ 64 µg/mL)
- MIC [13]: 26.4 µM (≈ 64 µg/mL)
- MIC (Staphylococcus aureus MR): 26.4 µM (≈ 64 µg/mL)
SMILES: CC[C@H](C)[C@H](NC(=O)[C@@H](NC(=O)[C@H](CCCN=C(N)N)NC(=O)[C@H](Cc1ccccc1)NC(=O)[C@@H](N)Cc1ccc(O)cc1)[C@@H](C)O)C(=O)N[C@@H](CCCN=C(N)N)C(=O)N[C@@H](CCCN=C(N)N)C(=O)N[C@@H](Cc1ccccc1)C(=O)N[C@@H](Cc1ccccc1)C(=O)N[C@@H](CCCCN)C(=O)N[C@@H](CCCCN)C(=O)N[C@@H](CC(C)C)C(=O)N[C@@H](Cc1ccccc1)C(=O)N[C@@H](CCCCN)C(=O)N[C@H](C(=O)N[C@@H](CC(C)C)C(=O)N[C@@H](CCCCN)C(=O)N[C@@H](CCCCN)C(N)=O)[C@@H](C)O [YFRTIRRFFKKLFKTLKK]

- MIC [14]: 0.755 µM (≈ 2 µg/mL)
- MIC [15]: 3.02 µM (≈ 8 µg/mL)
- MIC [16]: 24.2 µM (≈ 64 µg/mL)
- MIC [17]: 24.2 µM (≈ 64 µg/mL)
- MIC [4]: > 24.2 µM
- MIC [18]: 6.04 µM (≈ 16 µg/mL)
- MIC [19]: 1.51 µM (≈ 4 µg/mL)
- MIC [20]: 24.2 µM (≈ 64 µg/mL)
SMILES: C[C@H](NC(=O)[C@H](Cc1ccccc1)NC(=O)[C@H](C)NC(=O)[C@@H](N)Cc1ccccc1)C(=O)N[C@@H](Cc1ccccc1)C(=O)N[C@@H](C)C(=O)N[C@@H](Cc1ccccc1)C(=O)N[C@@H](CCCCN)C(=O)N[C@@H](CCCCN)C(=O)N[C@@H](C)C(=O)N[C@@H](Cc1ccccc1)C(=O)N[C@@H](CCCCN)C(=O)N[C@@H](CCCCN)C(=O)N[C@@H](Cc1ccccc1)C(=O)N[C@@H](CCCCN)C(=O)N[C@@H](CCCCN)C(=O)N[C@@H](C)C(=O)N[C@@H](Cc1ccccc1)C(=O)N[C@@H](CCCCN)C(=O)N[C@@H](CCCCN)C(=O)N[C@@H](C)C(=O)N[C@@H](Cc1ccccc1)C(=O)O [FAFAFAFKKAFKKFKKAFKKAF]
